Assay results: patent US20120225817A1, “THERAPEUTIC AGENT FOR GASTROINTESTINAL DISEASE” (Santen Pharmaceutical Co., Ltd., priority 2009, published 2012)
Residues, ends and D or L forms follow the SMILES beside them.

Tested on: Caco-2 cells
Assay: Effect on migration of gastrointestinal mucosal tissue cells (cut in a confluent Caco-2 cell layer, cell spreading area)
Assay type: cell-based, human
Settings: for Migration of Caco-2 cells (%): 18 hours, control = 100%, mean ± standard error, 8 samples
Method: An effect on cell migration was studied by the following method using Caco-2 cells which are a human colon cancer cell line.
In a 24-well plate coated with type IV collagen, Caco-2 cells were seeded at […] cells per well and cultured to confluence in a DMEM medium containing 10% FBS. A cut was formed in the cell layer using a razor blade, and a cell-free region was created with a cotton swab. After washing with a DMEM medium containing 1% FBS, the cells were cultured for 18 hours in the same medium containing each test compound under conditions of 37° C. and 5% CO2. The effect on the migration of Caco-2 cells was studied by taking pictures before adding the test compound and at 18 hours after the addition of the test compound and comparing cell spreading areas in a fixed region at 18 hours after the addition of the test compounds. Further, Caco-2 cells cultured in the same manner in the medium without containing the test compound were used as a control.
The results of the case where a single agent of SSSR was used are shown in Table 1, and the results of the case where SSSR and FGLM-NH2 were used in combination are shown in Table 2. In the tables, the migration of the Caco-2 cells is expressed as a mean and standard error calculated from the results of 8 samples for each test compound by taking the migration of the control cells as a standard (100%). Incidentally, the symbol “★★” indicates a statistical significance at a P value of <0.001 compared to the control.

| SMILES | Migration of Caco-2 cells (%) (FGLM-NH2 20 μM) | Effect on migration of Caco-2 cells (in words) (single agent, FGLM-NH2 trifluoroacetate at 20 μM) | Migration of Caco-2 cells (%) (SSSR 10 nM) | Migration of Caco-2 cells (%) (SSSR 30 μM) | Effect on migration of Caco-2 cells (in words) (SSSR trifluoroacetate at 30 μM) | Effect on migration of Caco-2 cells (in words) (single agent, SSSR trifluoroacetate at 10 nM) |
| --- | --- | --- | --- | --- | --- | --- |
| CSCC[C@H](NC(=O)[C@H](CC(C)C)NC(=O)CNC(=O)[C@@H](N)Cc1ccccc1)C(N)=O [FGLM-NH2, Phe-Gly-Leu-Met-NH2] (H-FGLM-NH2; N-terminus assumed) | 105.9 ± 3.9 | does not promote the migration of Caco-2 cells | – | – | – | – |
| N=C(N)NCCC[C@H](NC(=O)[C@H](CO)NC(=O)[C@H](CO)NC(=O)[C@@H](N)CO)C(=O)O [SSSR, Ser-Ser-Ser-Arg] (H-SSSR-OH; N-terminus and C-terminus assumed) | – | – | 109.7 ± 5.1 | 125.0 ± 2.0 | promotes the migration of Caco-2 cells | does not promote the migration of Caco-2 cells |
